The results in this text go back to ChEMBL document CHEMBL2157925, “Design, synthesis, and bioevaluation of benzamides: novel acetylcholinesterase inhibitors with multi-functions on butylcholinesterase, Aβ aggregation, and β-secretase” (Bioorg Med Chem, 2012).

Some targets named below: Acetylcholinesterase (Homo sapiens, UniProt P22303); Cholinesterase (Homo sapiens, UniProt P06276); Beta-secretase 1 (Homo sapiens, UniProt P56817).

Acetylcholinesterase, sequence (P22303 whole entry): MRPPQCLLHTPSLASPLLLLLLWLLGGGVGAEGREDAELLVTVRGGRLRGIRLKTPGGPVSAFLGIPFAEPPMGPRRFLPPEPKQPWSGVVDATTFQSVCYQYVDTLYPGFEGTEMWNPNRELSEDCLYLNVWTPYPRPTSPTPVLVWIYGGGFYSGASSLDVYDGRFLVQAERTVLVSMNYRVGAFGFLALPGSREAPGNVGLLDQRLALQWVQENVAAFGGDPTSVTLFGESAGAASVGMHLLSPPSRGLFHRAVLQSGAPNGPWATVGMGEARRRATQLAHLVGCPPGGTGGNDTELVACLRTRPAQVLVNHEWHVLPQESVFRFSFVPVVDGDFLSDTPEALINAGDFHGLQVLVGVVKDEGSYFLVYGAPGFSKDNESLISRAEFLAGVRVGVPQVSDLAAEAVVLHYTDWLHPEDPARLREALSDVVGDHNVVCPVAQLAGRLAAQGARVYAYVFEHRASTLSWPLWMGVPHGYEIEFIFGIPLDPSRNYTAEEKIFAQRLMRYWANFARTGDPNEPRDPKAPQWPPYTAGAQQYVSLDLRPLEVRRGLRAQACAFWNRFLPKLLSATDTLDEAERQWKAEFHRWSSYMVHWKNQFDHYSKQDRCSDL
Cholinesterase, sequence (P06276 whole entry): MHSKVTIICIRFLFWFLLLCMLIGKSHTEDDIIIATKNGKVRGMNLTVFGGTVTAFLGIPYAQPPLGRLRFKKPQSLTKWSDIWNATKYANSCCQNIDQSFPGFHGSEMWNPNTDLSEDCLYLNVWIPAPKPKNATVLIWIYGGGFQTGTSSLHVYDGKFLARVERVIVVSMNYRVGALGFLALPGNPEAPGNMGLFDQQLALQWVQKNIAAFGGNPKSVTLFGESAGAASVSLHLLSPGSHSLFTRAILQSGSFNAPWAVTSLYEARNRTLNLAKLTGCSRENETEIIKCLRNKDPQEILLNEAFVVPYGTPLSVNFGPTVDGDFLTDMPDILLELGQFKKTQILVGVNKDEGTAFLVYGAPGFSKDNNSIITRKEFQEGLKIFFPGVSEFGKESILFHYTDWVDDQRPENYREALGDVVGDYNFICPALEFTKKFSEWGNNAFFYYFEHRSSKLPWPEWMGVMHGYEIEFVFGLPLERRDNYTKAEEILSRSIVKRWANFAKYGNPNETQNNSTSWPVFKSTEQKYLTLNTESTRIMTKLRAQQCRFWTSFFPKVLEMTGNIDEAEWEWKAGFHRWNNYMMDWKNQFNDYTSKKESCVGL
Beta-secretase 1, sequence (P56817 whole entry): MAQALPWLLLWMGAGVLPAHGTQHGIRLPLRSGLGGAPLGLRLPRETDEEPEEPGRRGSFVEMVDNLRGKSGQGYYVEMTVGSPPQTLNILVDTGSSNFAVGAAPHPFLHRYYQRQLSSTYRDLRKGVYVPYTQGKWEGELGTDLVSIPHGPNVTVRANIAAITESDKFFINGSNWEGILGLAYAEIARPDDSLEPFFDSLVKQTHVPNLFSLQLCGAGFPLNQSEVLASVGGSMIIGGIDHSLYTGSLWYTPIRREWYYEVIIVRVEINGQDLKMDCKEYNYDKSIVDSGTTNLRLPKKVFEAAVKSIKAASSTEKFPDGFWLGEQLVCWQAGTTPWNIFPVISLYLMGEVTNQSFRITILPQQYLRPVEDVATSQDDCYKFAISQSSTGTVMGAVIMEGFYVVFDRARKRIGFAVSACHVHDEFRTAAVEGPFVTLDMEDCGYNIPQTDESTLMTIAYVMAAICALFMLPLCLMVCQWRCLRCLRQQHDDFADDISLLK
Description for Acetylcholinesterase: Inhibition of human recombinant AChE using acetylthiocholine as substrate

`O=C(NCCc1c[nH]c2ccccc12)c1ccc(OCCCCn2c3ccccc3c3ccccc32)cc1` returned a Ki at Acetylcholinesterase of 1440 nM. This lies in the single-digit micromolar range.

Molecule `O=C(NCCc1c[nH]c2ccccc12)c1ccc(OCCCCn2ccc3ccccc32)cc1` came in with a Ki at Acetylcholinesterase of over 10000 nM.

In turn, `O=C(NCCc1c[nH]c2ccccc12)c1ccc(OCCCCOc2cccc3[nH]c4ccccc4c23)cc1` registered a Ki at Acetylcholinesterase of over 10000 nM.

Molecule `O=C(NCCc1c[nH]c2ccccc12)c1ccc(OCCCCOc2cccc(C(=O)c3ccccc3)c2)cc1` came in with an inhibition constant Ki on Acetylcholinesterase of over 10000 nM.

At Acetylcholinesterase, `O=C(NCCc1c[nH]c2ccccc12)c1ccc(OCCCCOc2ccc(C(=O)c3ccccc3)cc2)cc1` yielded a Ki of over 10000 nM.

On to `O=C(NCCc1c[nH]c2ccccc12)c1ccc(OCCCCOc2ccc3c(c2)C(=O)c2ccccc2-3)cc1`, for which the Ki on Acetylcholinesterase was over 10000 nM.

With `CN(C)c1cc[n+](CCCCOc2ccc(C(=O)NCCc3c[nH]c4ccccc34)cc2)cc1`, the Ki on Cholinesterase is 2360 nM; at Acetylcholinesterase, 198 nM.

In the case of `O=C(NCCc1c[nH]c2ccccc12)c1ccc(OCCCC[n+]2cccc3ccccc32)cc1`, the Ki is 97 nM at Cholinesterase and 124 nM on Acetylcholinesterase.

For the molecule `CC(=O)c1ccccc1NC(=O)c1ccc(OCCCC[n+]2cccc3ccccc32)cc1`, the Ki amounted to 166 nM at Cholinesterase and 53 nM on Acetylcholinesterase.

Turning to `CC(=O)c1ccccc1NC(=O)c1ccc(OCCCC[n+]2ccc3ccccc3c2)cc1`, the Ki was 56 nM at Cholinesterase and 45.8 nM on Acetylcholinesterase.

Consider `CC(=O)c1ccccc1NC(=O)c1ccc(OCCCCC[n+]2ccc3ccccc3c2)cc1`, for which the Ki is 82 nM at Cholinesterase and 44.7 nM at Acetylcholinesterase. The molecule further came in with an IC50 against Beta-secretase 1 of over 100000 nM.

Take `CC(=O)c1ccccc1NC(=O)c1ccc(OCCCCCC[n+]2ccc3ccccc3c2)cc1`: the Ki at Cholinesterase stood at 99 nM; on Acetylcholinesterase, 9.4 nM. The molecule further returned an IC50 on Beta-secretase 1 of over 100000 nM.

On to `CC(=O)c1ccccc1NC(=O)c1ccc(OCCCCC[n+]2cccc3ccccc32)cc1`, for which the inhibitory constant (Ki) on Cholinesterase is 55 nM; at Acetylcholinesterase it was 6.47 nM. Moreover, the IC50 on Beta-secretase 1 amounted to 85000 nM.

Regarding `CC(=O)c1ccccc1NC(=O)c1ccc(OCCCCC[n+]2ccccc2)cc1`, the values for the Ki on Cholinesterase and on Acetylcholinesterase were 93 nM and 81 nM, respectively. The molecule also displayed an IC50 against Beta-secretase 1 of 310 nM.

For the molecule `CC(=O)c1ccccc1NC(=O)c1ccc(OCCCCCC[n+]2ccccc2)cc1`, the Ki at Cholinesterase was determined as 66 nM; on Acetylcholinesterase, 47 nM.

The Ki is the dissociation constant of the complex between target and ligand, obtained from inhibition or displacement. In general, IC50 refers to the midpoint of a concentration-inhibition curve.
